# Experiments:
# [1] = test system: BaF3; experiment: cells; conditions: Mus musculus, BaF3, 72 h
# Description: Antiproliferative activity against mouse BAF3 cells expressing TEL-JAK2 kinase after 72 hrs by alamar blue assay
# [2] = target: Tyrosine-protein kinase JAK2 (Homo sapiens, UniProt O60674)
# Description: Inhibition of GST-tagged JAK2 kinase
# [3] = target: T1, Tyrosine-protein kinase JAK3 (Homo sapiens, UniProt P52333)
# T1 sequence (P52333 whole entry): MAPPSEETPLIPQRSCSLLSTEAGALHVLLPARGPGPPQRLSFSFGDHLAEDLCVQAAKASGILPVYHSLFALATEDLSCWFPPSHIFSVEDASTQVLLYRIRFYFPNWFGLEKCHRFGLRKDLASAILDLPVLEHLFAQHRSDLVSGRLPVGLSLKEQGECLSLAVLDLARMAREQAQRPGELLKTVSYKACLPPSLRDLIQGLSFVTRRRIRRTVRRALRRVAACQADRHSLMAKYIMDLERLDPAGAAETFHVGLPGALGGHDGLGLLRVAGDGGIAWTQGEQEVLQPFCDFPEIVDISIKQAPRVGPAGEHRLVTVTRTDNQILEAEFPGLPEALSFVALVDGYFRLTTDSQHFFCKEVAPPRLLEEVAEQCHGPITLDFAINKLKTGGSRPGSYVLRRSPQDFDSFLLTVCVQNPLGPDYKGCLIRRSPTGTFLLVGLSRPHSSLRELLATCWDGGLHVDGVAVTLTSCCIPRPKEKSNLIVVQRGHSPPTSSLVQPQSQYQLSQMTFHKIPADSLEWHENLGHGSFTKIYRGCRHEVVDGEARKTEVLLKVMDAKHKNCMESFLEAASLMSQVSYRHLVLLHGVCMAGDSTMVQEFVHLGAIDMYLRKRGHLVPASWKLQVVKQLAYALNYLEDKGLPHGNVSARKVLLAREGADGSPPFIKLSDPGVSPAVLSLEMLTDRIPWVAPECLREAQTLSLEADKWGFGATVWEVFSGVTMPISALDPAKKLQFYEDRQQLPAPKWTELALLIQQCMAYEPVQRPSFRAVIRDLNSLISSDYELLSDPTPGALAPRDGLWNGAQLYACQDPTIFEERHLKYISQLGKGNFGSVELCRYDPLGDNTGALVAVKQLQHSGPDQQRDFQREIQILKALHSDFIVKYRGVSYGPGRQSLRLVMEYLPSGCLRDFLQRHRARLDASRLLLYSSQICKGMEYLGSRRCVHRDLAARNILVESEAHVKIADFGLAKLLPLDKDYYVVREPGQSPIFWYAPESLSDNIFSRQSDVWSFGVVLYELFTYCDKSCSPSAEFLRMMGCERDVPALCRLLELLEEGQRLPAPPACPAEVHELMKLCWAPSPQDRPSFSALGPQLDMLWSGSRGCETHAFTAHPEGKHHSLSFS
# Description: Inhibition of GST-tagged JAK3 kinase
# [4] = cells; conditions: Mus musculus, CTLL-2, 72 h
# Description: Antiproliferative activity against IL-2-stimulated mouse CTLL-2 cells expressing JAK1/JAK3 after 72 hrs by alamar blue assay
# [5] = test system: BaF3; experiment: cells; conditions: Mus musculus, BaF3, 72 h; remark: listed apart in the source
# Description: Antiproliferative activity against mouse BAF3 cells expressing TEL-JAK3 kinase after 72 hrs by alamar blue assay
# [6] = Apparent permeability from basolateral to apical side in human Caco-2 cells; assay type: ADME, cell-based
# [7] = in vitro; conditions: human, Caco-2
# Description: Apparent permeability from apical to basolateral side in human Caco-2 cells
# [8] = in vitro; conditions: human, Caco-2; remark: listed apart in the source
# Description: Ratio of permeability from apical to basolateral side over basolateral to apical side in human Caco-2 cells
# [9] = Apparent half life in Sprague-Dawley rat at 18 mg/kg, po; assay type: ADME, organism-based; set-up: dose 18 mg/kg, route oral; conditions: in vivo
# [10] = Cmax in Sprague-Dawley rat at 18 mg/kg, po; assay type: ADME, organism-based; set-up: dose 18 mg/kg, route oral; conditions: in vivo
# [11] = test system: BaF3; experiment: Antiproliferative activity against mouse BAF3 cells expressing wild type JAK2 kinase after 72 hrs by alamar blue assay in presence of IL-3; assay type: functional, cell-based; conditions: BaF3, 72 h
# [12] = test system: K562; experiment: cells; conditions: Homo sapiens, K562, 72 h
# Description: Antiproliferative activity against human K562 cells after 72 hrs by alamar blue assay
# [13] = Antiproliferative activity against human SET2 cells expressing JAK2 V617F mutant kinase after 72 hrs by alamar blue assay; assay type: functional, cell-based; conditions: SET-2, 72 h
# [14] = Blood clearance in Sprague-Dawley rat at 18 mg/kg, po; assay type: ADME, organism-based; set-up: dose 18 mg/kg, route oral
# [15] = Tmax in Sprague-Dawley rat at 18 mg/kg, po; assay type: ADME, organism-based; set-up: dose 18 mg/kg, route oral; conditions: in vivo
# Sequence of Tyrosine-protein kinase JAK2 (O60674 whole entry): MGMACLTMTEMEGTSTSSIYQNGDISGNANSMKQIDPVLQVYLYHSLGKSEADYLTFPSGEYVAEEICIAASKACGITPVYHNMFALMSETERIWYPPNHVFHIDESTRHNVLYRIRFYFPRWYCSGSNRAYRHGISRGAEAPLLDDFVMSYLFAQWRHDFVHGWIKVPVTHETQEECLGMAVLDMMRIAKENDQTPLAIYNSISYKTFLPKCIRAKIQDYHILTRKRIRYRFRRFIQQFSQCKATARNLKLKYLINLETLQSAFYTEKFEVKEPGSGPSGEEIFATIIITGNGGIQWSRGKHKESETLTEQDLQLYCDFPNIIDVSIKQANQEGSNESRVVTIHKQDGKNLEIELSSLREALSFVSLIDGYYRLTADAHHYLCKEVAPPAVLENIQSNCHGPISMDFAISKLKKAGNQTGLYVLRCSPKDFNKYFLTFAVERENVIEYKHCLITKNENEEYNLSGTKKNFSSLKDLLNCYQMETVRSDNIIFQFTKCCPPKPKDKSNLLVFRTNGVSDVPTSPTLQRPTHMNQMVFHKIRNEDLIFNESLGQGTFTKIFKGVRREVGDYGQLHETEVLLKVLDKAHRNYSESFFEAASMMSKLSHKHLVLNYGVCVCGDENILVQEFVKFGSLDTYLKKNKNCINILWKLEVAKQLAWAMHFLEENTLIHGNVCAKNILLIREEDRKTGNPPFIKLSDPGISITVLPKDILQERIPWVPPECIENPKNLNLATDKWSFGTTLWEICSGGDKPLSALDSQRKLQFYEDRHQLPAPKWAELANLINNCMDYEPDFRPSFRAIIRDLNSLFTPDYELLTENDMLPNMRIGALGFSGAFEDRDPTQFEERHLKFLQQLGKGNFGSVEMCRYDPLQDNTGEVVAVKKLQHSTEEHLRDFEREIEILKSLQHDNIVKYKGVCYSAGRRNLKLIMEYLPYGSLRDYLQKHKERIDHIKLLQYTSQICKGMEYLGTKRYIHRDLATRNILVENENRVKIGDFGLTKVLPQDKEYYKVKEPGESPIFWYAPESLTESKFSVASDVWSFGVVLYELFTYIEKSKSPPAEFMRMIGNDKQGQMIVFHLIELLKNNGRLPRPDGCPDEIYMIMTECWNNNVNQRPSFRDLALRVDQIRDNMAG
Structure (SMILES),IC50 [1],IC50 [2],IC50 [3],IC50 [4],IC50 [5],further results
Cc1cc(-c2ccnc(Nc3ccc(N4CCOCC4)cc3)n2)cc(C)c1O,3520 nM,88 nM,–,–,–,–
N#CCC(=O)Nc1cccc(-c2ccnc(Nc3ccc(N4CCOCC4)cc3)n2)c1,10300 nM,303 nM,1760 nM,18900 nM,> 20000 nM,–
N#CCNC(=O)c1ccc(-c2ccnc(Nc3ccc(N4CCSCC4)cc3)n2)cc1,2200 nM,69 nM,–,1510 nM,6240 nM,–
N#CCNC(=O)c1cccc(-c2ccnc(Nc3ccc(N4CCOCC4)cc3)n2)c1,> 20000 nM,545 nM,> 5000 nM,> 20000 nM,> 20000 nM,–
CS(=O)(=O)Nc1ccc(-c2ccnc(Nc3cccc(CN4CCCC4)c3)n2)cc1,234 nM,6 nM,110 nM,569 nM,240 nM,–
Cc1cc(-c2ccnc(Nc3ccc(N4CCOCC4)cc3)n2)ccc1C(=O)NCC#N,2630 nM,65 nM,> 1000 nM,2040 nM,7570 nM,–
COc1cc(-c2ccnc(Nc3ccc(N4CCOCC4)cc3)n2)ccc1C(=O)NCC#N,205 nM,30 nM,9 nM,245 nM,275 nM,–
CC(C)(C#N)NC(=O)c1ccc(-c2ccnc(Nc3ccc(N4CCOCC4)cc3)n2)cc1,3720 nM,549 nM,3910 nM,–,4250 nM,–
CCN(CC)CCCOc1ccc(Nc2nccc(-c3ccc(C(=O)NCC#N)cc3)n2)cc1,840 nM,166 nM,362 nM,3680 nM,1100 nM,–
N#CCNC(=O)c1ccc(-c2ccnc(Nc3ccc(CN4CCOCC4)cc3)n2)cc1,2800 nM,163 nM,1450 nM,5070 nM,9500 nM,–
CCN1CCN(Cc2ccc(Nc3nccc(-c4ccc(C(=O)NCC#N)cc4)n3)cc2)CC1,423 nM,47 nM,152 nM,1850 nM,1230 nM,–
CN1CCN(c2ccc(Nc3nccc(-c4ccc(C(=O)NCC#N)cc4)n3)cc2)CC1,525 nM,–,192 nM,1830 nM,2050 nM,–
CN1CCN(Cc2ccc(Nc3nccc(-c4ccc(NS(C)(=O)=O)cc4)n3)cc2)CC1,1000 nM,18 nM,> 1000 nM,1550 nM,3430 nM,–
N#Cc1ccc(-c2ccnc(Nc3ccc(N4CCOCC4)cc3)n2)cc1,> 20000 nM,–,–,–,–,–
N#CCNC(=O)c1ccc(-c2ccnc(Nc3ccc(N4CCOCC4)c(C(F)(F)F)c3)n2)cc1,1240 nM,–,2020 nM,3990 nM,1710 nM,–
O=C(NCc1ccco1)c1ccc(-c2ccnc(Nc3ccc(N4CCOCC4)cc3)n2)cc1,5220 nM,202 nM,–,–,–,–
c1ccc(-c2ccnc(Nc3ccc(N4CCOCC4)cc3)n2)cc1,–,467 nM,–,–,–,–
NS(=O)(=O)c1ccc(-c2ccnc(Nc3ccc(N4CCOCC4)cc3)n2)cc1,–,83 nM,–,–,–,–
c1cc(-c2ccc3[nH]ccc3c2)nc(Nc2ccc(N3CCOCC3)cc2)n1,7130 nM,33 nM,–,–,–,–
OC[C@@H](O)[C@@H](O)[C@H](O)[C@H](O)CO [MANNITOL],–,–,–,–,–,Papp B→A [6]: 1.1 ×10⁻⁶ cm/s; Papp A→B [7]: 0.7 ×10⁻⁶ cm/s; efflux ratio [8]: 1.5
N#CCNC(=O)c1ccc(-c2ccnc(Nc3ccc(N4CCOCC4)cc3)n2)cc1 [MOMELOTINIB],798 nM,–,–,1250 nM,2420 nM,Papp B→A [6]: 27.3 ×10⁻⁶ cm/s; Papp A→B [7]: 30.4 ×10⁻⁶ cm/s; half-life [9]: 2.4 h; Cmax [10]: 40.4 µM; IC50 [11]: 1430 nM; IC50 [12]: > 20000 nM; IC50 [13]: 232 nM; CL/F [14]: 6.3 mL/min/kg; Tmax [15]: 4 h
CC(C)NCC(O)COc1cccc2ccccc12 (configuration not stated) [PROPRANOLOL],–,–,–,–,–,Papp B→A [6]: 48.8 ×10⁻⁶ cm/s; Papp A→B [7]: 38.7 ×10⁻⁶ cm/s; efflux ratio [8]: 1.3

# More lines, main results first:
IC50 [1],IC50 [2],IC50 [3],IC50 [4],IC50 [5],Structure (SMILES),further results
3110 nM,67 nM,–,–,–,CC(=O)Nc1ccc(-c2ccnc(Nc3ccc(N4CCOCC4)cc3)n2)cc1,–
2040 nM,52 nM,–,7900 nM,9980 nM,N#CCNC(=O)c1ccc(-c2ccnc(Nc3ccc(CN4CCS(=O)(=O)CC4)cc3)n2)cc1,–
433 nM,8 nM,85 nM,240 nM,5960 nM,Cc1cnc(Nc2ccc(N3CCOCC3)cc2)nc1-c1ccc(C(=O)NCC#N)cc1,–
9820 nM,132 nM,> 1000 nM,8030 nM,> 20000 nM,N#CCNCc1cccc(-c2ccnc(Nc3ccc(N4CCOCC4)cc3)n2)c1,–
720 nM,–,–,915 nM,4200 nM,N#CCC(=O)Nc1ccc(-c2ccnc(Nc3ccc(N4CCOCC4)cc3)n2)cc1,–
1140 nM,116 nM,274 nM,1260 nM,3280 nM,N#CCNC(=O)c1ccc(-c2ccnc(Nc3ccc(N4CCOCC4)c(F)c3)n2)cc1,–
2560 nM,–,1880 nM,3770 nM,7450 nM,N#CCNC(=O)c1ccc(-c2ccnc(Nc3cccc(N4CCOCC4)c3)n2)cc1,–
380 nM,3 nM,62 nM,< 160 nM,2550 nM,COc1cc(-c2ccnc(Nc3ccc(N4CCOCC4)cc3)n2)ccc1O,–
580 nM,11 nM,538 nM,735 nM,730 nM,CS(=O)(=O)Nc1ccc(-c2ccnc(Nc3ccc(CN4CCCCC4)cc3)n2)cc1,–
812 nM,8 nM,930 nM,2660 nM,1730 nM,CS(=O)(=O)Nc1ccc(-c2ccnc(Nc3cccc(CN4CCOCC4)c3)n2)cc1,–
6340 nM,298 nM,1420 nM,4170 nM,16900 nM,CN(CC#N)C(=O)c1ccc(-c2ccnc(Nc3ccc(N4CCOCC4)cc3)n2)cc1,–
771 nM,12 nM,636 nM,6760 nM,1940 nM,CS(=O)(=O)Nc1ccc(-c2ccnc(Nc3cccc(CN4CCC(O)CC4)c3)n2)cc1,–
896 nM,9 nM,> 1000 nM,1670 nM,1940 nM,CS(=O)(=O)Nc1ccc(-c2ccnc(Nc3ccc(CN4CCOCC4)cc3)n2)cc1,–
892 nM,16 nM,1620 nM,5610 nM,2200 nM,CS(=O)(=O)Nc1ccc(-c2ccnc(Nc3ccc(CN4CCC(O)CC4)cc3)n2)cc1,–
941 nM,14 nM,960 nM,5180 nM,3140 nM,CN1CCN(Cc2cccc(Nc3nccc(-c4ccc(NS(C)(=O)=O)cc4)n3)c2)CC1,–
396 nM,4 nM,351 nM,489 nM,3940 nM,CS(=O)(=O)Nc1ccc(-c2ccnc(Nc3ccc(N4CCOCC4)cc3)n2)cc1,–
933 nM,6 nM,149 nM,1490 nM,6550 nM,CS(=O)(=O)Nc1ccc(-c2ccnc(Nc3ccc(N4CCC(O)CC4)cc3)n2)cc1,–
8500 nM,–,–,6160 nM,> 20000 nM,COc1cnc(Nc2ccc(N3CCOCC3)cc2)nc1-c1ccc(C(=O)NCC#N)cc1,–
8520 nM,322 nM,–,–,–,Nc1cccc(-c2ccnc(Nc3ccc(N4CCOCC4)cc3)n2)c1,–
5560 nM,326 nM,–,–,–,NC(=O)c1ccc(-c2ccnc(Nc3ccc(N4CCOCC4)cc3)n2)cc1,–
5620 nM,16 nM,–,–,–,COc1cc(-c2ccnc(Nc3ccc(N4CCOCC4)cc3)n2)ccc1N,–
3730 nM,81 nM,–,–,–,Cc1nccn1Cc1ccc(-c2ccnc(Nc3ccc(N4CCOCC4)cc3)n2)cc1,–

# Reference: ChEMBL document CHEMBL1154287, “Phenylaminopyrimidines as inhibitors of Janus kinases (JAKs)” (Bioorg Med Chem Lett, 2009)
